The record followed here is publication PMC5218480 (PLoS ONE, 2017).

This experiment has as its system MV-4-11 cells. Description: Gene expression microarray analysis (Affymetrix PrimeView) and GSEA. The format is cell-based, human. The arrangement: RFU PODN (11730768_x_at) / Fold change /veh PODN (11730768_x_at) / RFU LINC00158 (11744669_a_at) / Fold change /veh LINC00158 (11744669_a_at) / RFU DUSP10 (11751237_a_at) / Fold change /veh DUSP10 (11751237_a_at) / RFU ID3 (11757404_x_at) / Fold change /veh ID3 (11757404_x_at) / RFU PLEKHG5 (11737974_s_at) / Fold change /veh PLEKHG5 (11737974_s_at) / RFU LRRC4B (11730491_at) / Fold change /veh LRRC4B (11730491_at) / RFU GIMAP4 (11747438_a_at) / Fold change /veh GIMAP4 (11747438_a_at) / RFU KRT8 (11758183_x_at) / Fold change /veh KRT8 (11758183_x_at) / RFU CNN1 (11734310_a_at) / Fold change /veh CNN1 (11734310_a_at) / RFU VPS37D (11726825_at) / Fold change /veh VPS37D (11726825_at) / RFU C10orf10 (11716522_x_at) / Fold change /veh C10orf10 (11716522_x_at) / RFU KIR2DL2 /// KIR2DL4 /// KIR2DL5A /// KIR2DL5B /// KIR2DS1 /// KIR2DS2 /// KIR2DS3 /// KIR2DS4 /// KIR3DL3 /// KIR3DL3 /// KIR3DS1 (11738374_at) / Fold change /veh KIR2DL2 /// KIR2DL4 /// KIR2DL5A /// KIR2DL5B /// KIR2DS1 /// KIR2DS2 /// KIR2DS3 /// KIR2DS4 /// KIR3DL3 /// KIR3DL3 /// KIR3DS1 (11738374_at) / RFU C1QL1 (11718748_at) / Fold change /veh C1QL1 (11718748_at) / RFU TMPRSS4 (11747572_a_at) / Fold change /veh TMPRSS4 (11747572_a_at) / RFU HAMP (11756126_x_at) / Fold change /veh HAMP (11756126_x_at) / RFU RNFT2 (11725882_a_at) / Fold change /veh RNFT2 (11725882_a_at) / RFU NR4A2 (11747474_a_at) / Fold change /veh NR4A2 (11747474_a_at) / RFU ABCC12 (11746883_a_at) / Fold change /veh ABCC12 (11746883_a_at) / RFU TMEM136 (11760407_x_at) / Fold change /veh TMEM136 (11760407_x_at) / RFU CLDN22 /// WWC2 (11732394_at) / Fold change /veh CLDN22 /// WWC2 (11732394_at) / RFU HLA-DPB1 (11760878_x_at) / Fold change /veh HLA-DPB1 (11760878_x_at) / RFU SPINT1 (11716480_a_at) / Fold change /veh SPINT1 (11716480_a_at) / RFU GAP43 (11754022_s_at) / Fold change /veh GAP43 (11754022_s_at) / RFU A4GNT (11735810_at) / Fold change /veh A4GNT (11735810_at) / RFU PRB3 (11715151_x_at) / Fold change /veh PRB3 (11715151_x_at) / RFU TUBB4B (11761932_at) / Fold change /veh TUBB4B (11761932_at) / RFU CAPN14 (11732068_a_at) / Fold change /veh CAPN14 (11732068_a_at) / RFU TMCC2 (11721928_a_at) / Fold change /veh TMCC2 (11721928_a_at) / RFU IRGQ (11745062_a_at) / Fold change /veh IRGQ (11745062_a_at) / RFU FAM174B (11720279_a_at) / Fold change /veh FAM174B (11720279_a_at) / RFU TMPRSS4 (11748680_a_at) / Fold change /veh TMPRSS4 (11748680_a_at) / RFU FAM212B (11763350_a_at) / Fold change /veh FAM212B (11763350_a_at) / RFU PLEKHG5 (11743358_a_at) / Fold change /veh PLEKHG5 (11743358_a_at) / RFU ZSCAN30 (11745921_a_at) / Fold change /veh ZSCAN30 (11745921_a_at) / RFU CMKLR1 (11741424_a_at) / Fold change /veh CMKLR1 (11741424_a_at) / RFU LOC101060620 /// MAPK8IP1 (11723275_at) / Fold change /veh LOC101060620 /// MAPK8IP1 (11723275_at) / RFU SPTSSB (11747773_x_at) / Fold change /veh SPTSSB (11747773_x_at) / RFU PRSS12 (11739890_at) / Fold change /veh PRSS12 (11739890_at) / RFU BIN1 (11741810_x_at) / Fold change /veh BIN1 (11741810_x_at) / RFU WNT11 (11732464_a_at) / Fold change /veh WNT11 (11732464_a_at) / RFU C10orf10 (11716521_a_at) / Fold change /veh C10orf10 (11716521_a_at) / RFU C5orf56 (11738089_at) / Fold change /veh C5orf56 (11738089_at) / RFU CYB561 (11721691_x_at) / Fold change /veh CYB561 (11721691_x_at) / RFU ANKRD19P (11752326_a_at) / Fold change /veh ANKRD19P (11752326_a_at) / RFU OR2T12 /// OR2T33 /// OR2T8 (11738714_s_at) / Fold change /veh OR2T12 /// OR2T33 /// OR2T8 (11738714_s_at) / RFU VCAN (11748164_a_at) / Fold change /veh VCAN (11748164_a_at) / RFU JSRP1 (11732532_at) / Fold change /veh JSRP1 (11732532_at) / RFU KRTAP10-11 (11738290_x_at) / Fold change /veh KRTAP10-11 (11738290_x_at) / RFU MYO3A (11730013_a_at) / Fold change /veh MYO3A (11730013_a_at) / RFU EBF3 (11725865_a_at) / Fold change /veh EBF3 (11725865_a_at) / RFU CAMK2N1 (11719241_x_at) / Fold change /veh CAMK2N1 (11719241_x_at) / RFU C5orf56 (11738088_a_at) / Fold change /veh C5orf56 (11738088_a_at) / RFU OLFML3 (11715873_a_at) / Fold change /veh OLFML3 (11715873_a_at) / RFU LOC100653217 /// NTM (11731650_a_at) / Fold change /veh LOC100653217 /// NTM (11731650_a_at) / RFU MAPK11 (11762145_a_at) / Fold change /veh MAPK11 (11762145_a_at) / RFU FIZ1 (11724087_x_at) / Fold change /veh FIZ1 (11724087_x_at) / RFU OASL (11726364_x_at) / Fold change /veh OASL (11726364_x_at) / RFU SOX15 (11748057_x_at) / Fold change /veh SOX15 (11748057_x_at) / RFU CD79A (11719716_a_at) / Fold change /veh CD79A (11719716_a_at) / RFU HIST1H1D (11736915_at) / Fold change /veh HIST1H1D (11736915_at) / RFU CASKIN2 (11723855_a_at) / Fold change /veh CASKIN2 (11723855_a_at) / RFU LOC730098 (11760151_x_at) / Fold change /veh LOC730098 (11760151_x_at) / RFU OR4N2 (11742367_at) / Fold change /veh OR4N2 (11742367_at) / RFU PRRT2 (11749266_a_at) / Fold change /veh PRRT2 (11749266_a_at) / RFU SNX32 (11753110_a_at) / Fold change /veh SNX32 (11753110_a_at) / RFU CDHR5 (11726645_a_at) / Fold change /veh CDHR5 (11726645_a_at) / RFU RCAN1 (11760418_a_at) / Fold change /veh RCAN1 (11760418_a_at) / RFU FAM167A (11723789_a_at) / Fold change /veh FAM167A (11723789_a_at) / RFU FAM26E (11764081_at) / Fold change /veh FAM26E (11764081_at) / RFU ISYNA1 (11749810_s_at) / Fold change /veh ISYNA1 (11749810_s_at) / RFU ACY1 (11761880_at) / Fold change /veh ACY1 (11761880_at) / RFU 11764098_at / Fold change /veh 11764098_at / RFU SAMD14 (11745864_x_at) / Fold change /veh SAMD14 (11745864_x_at) / RFU NPB (11741838_a_at) / Fold change /veh NPB (11741838_a_at) / RFU TMPRSS6 (11731388_a_at) / Fold change /veh TMPRSS6 (11731388_a_at) / RFU KRTAP10-2 (11738614_at) / Fold change /veh KRTAP10-2 (11738614_at) / RFU ARHGAP8 /// PRR5-ARHGAP8 (11727945_x_at) / Fold change /veh ARHGAP8 /// PRR5-ARHGAP8 (11727945_x_at) / RFU KRTAP5-7 /// NADSYN1 (11734609_at) / Fold change /veh KRTAP5-7 /// NADSYN1 (11734609_at) / RFU RASL12 (11751679_a_at) / Fold change /veh RASL12 (11751679_a_at) / RFU CDKN2B (11736163_a_at) / Fold change /veh CDKN2B (11736163_a_at) / RFU PRF1 (11729649_at) / Fold change /veh PRF1 (11729649_at) / RFU, ZNF638 /// ZNF638-IT1 / Fold change vs veh, ZNF638 /// ZNF638-IT1 / RFU, PANK3 / Fold change vs veh, PANK3 / RFU, SH3YL1 / Fold change vs veh, SH3YL1 / RFU, ZEB2 / Fold change vs veh, ZEB2 / RFU, NRIP1 / Fold change vs veh, NRIP1 / RFU, PTTG1IP / Fold change vs veh, PTTG1IP / RFU, CAPN2 / Fold change vs veh, CAPN2 / RFU, MED14 / Fold change vs veh, MED14 / RFU, SNORA58 / Fold change vs veh, SNORA58 / RFU, C1orf63 / Fold change vs veh, C1orf63 / RFU, LRRFIP1 / Fold change vs veh, LRRFIP1 / RFU, NDUFAF7 / Fold change vs veh, NDUFAF7 / RFU, SLC12A2 / Fold change vs veh, SLC12A2 / RFU, IBTK / Fold change vs veh, IBTK / RFU, ESF1 / Fold change vs veh, ESF1 / Fold change vs veh, TMEM50B / RFU, TAOK1 / Fold change vs veh, TAOK1 / RFU, ACBD3 / Fold change vs veh, ACBD3 / RFU, TMA16 / Fold change vs veh, TMA16 / RFU, RWDD3 / Fold change vs veh, RWDD3 / RFU, BCAT1 / Fold change vs veh, BCAT1 / RFU, EDEM3 / Fold change vs veh, EDEM3 / RFU, TMEM33 / Fold change vs veh, TMEM33 / RFU, WDR75 / Fold change vs veh, WDR75 / RFU, AHCTF1 / Fold change vs veh, AHCTF1 / RFU, TFRC / Fold change vs veh, TFRC / RFU, ZDHHC17 / Fold change vs veh, ZDHHC17 / RFU, NOM1 / Fold change vs veh, NOM1 / RFU, ARL8B / Fold change vs veh, ARL8B / RFU, ZBTB11 / Fold change vs veh, ZBTB11 / RFU, TAMM41 / Fold change vs veh, TAMM41 / RFU, KIAA1704 /// LOC100996395 / Fold change vs veh, KIAA1704 /// LOC100996395 / RFU, ING1 / Fold change vs veh, ING1 / RFU, TRMT61B / Fold change vs veh, TRMT61B / RFU, FUBP3 / Fold change vs veh, FUBP3 / RFU, TP53 / Fold change vs veh, TP53 / RFU, TNKS2 / Fold change vs veh, TNKS2 / RFU, ZFP14 / Fold change vs veh, ZFP14 / RFU, ACTR2 / Fold change vs veh, ACTR2 / RFU, PPP3R1 / Fold change vs veh, PPP3R1 / RFU, PIK3R1 / Fold change vs veh, PIK3R1 / RFU, HNRNPA1 / Fold change vs veh, HNRNPA1 / RFU, RNF170 / Fold change vs veh, RNF170 / RFU, ZNF28 / Fold change vs veh, ZNF28 / RFU, RNGTT / Fold change vs veh, RNGTT / RFU, OGT / Fold change vs veh, OGT / RFU, BRD1 / Fold change vs veh, BRD1 / RFU, MARS / Fold change vs veh, MARS / RFU, ZNF655 / Fold change vs veh, ZNF655 / RFU, FAHD1 / Fold change vs veh, FAHD1 / RFU, BDP1 / Fold change vs veh, BDP1 / RFU, LRRCC1 / Fold change vs veh, LRRCC1 / RFU, ARID1A / Fold change vs veh, ARID1A / RFU, ZNF146 / Fold change vs veh, ZNF146 / RFU, ZNF330 / Fold change vs veh, ZNF330 / RFU, GPN3 / Fold change vs veh, GPN3 / RFU, C9orf123 / Fold change vs veh, C9orf123 / RFU, N4BP2L2 / Fold change vs veh, N4BP2L2 / RFU, ARFIP1 / Fold change vs veh, ARFIP1 / RFU, FAM179B / Fold change vs veh, FAM179B / RFU, BCL10 / Fold change vs veh, BCL10 / RFU, UHRF1BP1L / Fold change vs veh, UHRF1BP1L / RFU, BET1 / Fold change vs veh, BET1 / RFU, CNOT2 / Fold change vs veh, CNOT2 / RFU, ZNF268 / Fold change vs veh, ZNF268 / Fold change vs veh, ZNF507 / RFU, DGCR2 / Fold change vs veh, DGCR2 / RFU, WDSUB1 / Fold change vs veh, WDSUB1 / Fold change vs veh, HSP90B1 /// MIR3652 / RFU, ADSS / Fold change vs veh, ADSS / RFU, GK / Fold change vs veh, GK / RFU, ZNF148 / Fold change vs veh, ZNF148 / RFU, TAF9 / Fold change vs veh, TAF9 / RFU, SLC1A5 / Fold change vs veh, SLC1A5 / RFU, SLMO2 / Fold change vs veh, SLMO2 / RFU, ABCC4 / Fold change vs veh, ABCC4 / RFU, LOC101060439 /// RAP1B / Fold change vs veh, LOC101060439 /// RAP1B / RFU, RFX7 / Fold change vs veh, RFX7 / RFU, GTPBP10 / Fold change vs veh, GTPBP10 / RFU, CNEP1R1 / Fold change vs veh, CNEP1R1 / RFU, BIVM-ERCC5 /// ERCC5 / Fold change vs veh, BIVM-ERCC5 /// ERCC5 / RFU, ILF3 / Fold change vs veh, ILF3 / RFU 11762660_at / Fold change /veh 11762660_at / RFU VCAN (11757783_s_at) / Fold change /veh VCAN (11757783_s_at) / RFU DDX43 (11728927_at) / Fold change /veh DDX43 (11728927_at) / RFU KRT8 (11758188_x_at) / Fold change /veh KRT8 (11758188_x_at) / RFU NKD1 (11759106_at) / Fold change /veh NKD1 (11759106_at) / RFU SRD5A1 (11742802_a_at) / Fold change /veh SRD5A1 (11742802_a_at) / RFU TPSAB1 /// TPSB2 (11721975_s_at) / Fold change /veh TPSAB1 /// TPSB2 (11721975_s_at) / RFU GSTM3 (11746129_a_at) / Fold change /veh GSTM3 (11746129_a_at) / RFU IL23R (11737362_x_at) / Fold change /veh IL23R (11737362_x_at) / RFU TMEM51 (11727254_a_at) / Fold change /veh TMEM51 (11727254_a_at) / RFU PIWIL2 (11732686_x_at) / Fold change /veh PIWIL2 (11732686_x_at) / RFU ORM1 (11744905_x_at) / Fold change /veh ORM1 (11744905_x_at) / RFU CCDC152 (11743942_at) / Fold change /veh CCDC152 (11743942_at) / RFU ECM1 (11717891_a_at) / Fold change /veh ECM1 (11717891_a_at) / RFU IL23R (11748794_a_at) / Fold change /veh IL23R (11748794_a_at) / RFU TNFAIP8L3 (11732012_x_at) / Fold change /veh TNFAIP8L3 (11732012_x_at) / RFU MBOAT4 (11741988_at) / Fold change /veh MBOAT4 (11741988_at) / RFU 11764193_at / Fold change /veh 11764193_at / RFU TMEM53 (11763286_at) / Fold change /veh TMEM53 (11763286_at) / RFU MAGEB2 (11727129_at) / Fold change /veh MAGEB2 (11727129_at) / RFU TMEM200A (11744735_a_at) / Fold change /veh TMEM200A (11744735_a_at) / RFU CCDC152 (11751479_a_at) / Fold change /veh CCDC152 (11751479_a_at) / RFU FAM211A (11726209_a_at) / Fold change /veh FAM211A (11726209_a_at) / RFU RGS16 (11746705_a_at) / Fold change /veh RGS16 (11746705_a_at) / RFU VCAN (11755009_s_at) / Fold change /veh VCAN (11755009_s_at) / RFU RHOB (11743442_s_at) / Fold change /veh RHOB (11743442_s_at) / RFU RGS16 (11720943_a_at) / Fold change /veh RGS16 (11720943_a_at) / RFU RGS16 (11720944_at) / Fold change /veh RGS16 (11720944_at) / RFU, VPS4B / Fold change vs veh, VPS4B / RFU, CREB1 / Fold change vs veh, CREB1 / RFU, DNAJC13 / Fold change vs veh, DNAJC13 / RFU, GNAQ / Fold change vs veh, GNAQ / RFU, CDK5R1 / Fold change vs veh, CDK5R1 / RFU, ZRANB3 / Fold change vs veh, ZRANB3 / RFU, CUL4A / Fold change vs veh, CUL4A / RFU, CCNY / Fold change vs veh, CCNY / RFU, UFL1 / Fold change vs veh, UFL1 / RFU, COG3 / Fold change vs veh, COG3 / RFU, DIAPH2 / Fold change vs veh, DIAPH2 / RFU, SKA2 / Fold change vs veh, SKA2 / RFU, AFF3 / Fold change vs veh, AFF3 / RFU, LMF1 / Fold change vs veh, LMF1 / RFU, IPO11 / Fold change vs veh, IPO11 / RFU, DFFB / Fold change vs veh, DFFB / RFU, FOXP1 / Fold change vs veh, FOXP1 / RFU, CARD8 / Fold change vs veh, CARD8 / RFU, STRN3 / Fold change vs veh, STRN3 / RFU, ADK / Fold change vs veh, ADK / RFU, RASSF2 / Fold change vs veh, RASSF2 / RFU, WIPF1 / Fold change vs veh, WIPF1 / RFU, LARP1B / Fold change vs veh, LARP1B / RFU, RASA1 / Fold change vs veh, RASA1 / RFU, RB1 / Fold change vs veh, RB1 / RFU, PPFIA1 / Fold change vs veh, PPFIA1 / RFU, MAT2A / Fold change vs veh, MAT2A / RFU, CCT5 / Fold change vs veh, CCT5 / RFU, WDR92 / Fold change vs veh, WDR92 / RFU, CUX1 / Fold change vs veh, CUX1 / RFU, TTC7A / Fold change vs veh, TTC7A / RFU, TMEM135 / Fold change vs veh, TMEM135 / RFU, DEPTOR / Fold change vs veh, DEPTOR / RFU, CPM / Fold change vs veh, CPM / RFU, DNAJB6 / Fold change vs veh, DNAJB6 / RFU, CACNA2D3 / Fold change vs veh, CACNA2D3 / RFU, DTX4 / Fold change vs veh, DTX4 / RFU, TFCP2 / Fold change vs veh, TFCP2 / RFU, GMCL1 /// GMCL1P1 / Fold change vs veh, GMCL1 /// GMCL1P1 / RFU, AEBP2 / Fold change vs veh, AEBP2 / RFU, SNHG1 /// SNORD22 /// SNORD25 /// SNORD26 /// SNORD27 /// SNORD28 /// SNORD29 /// SNORD31 / Fold change vs veh, SNHG1 /// SNORD22 /// SNORD25 /// SNORD26 /// SNORD27 /// SNORD28 /// SNORD29 /// SNORD31 / Fold change (Aza/veh), C12orf56 (ProbeSet 11735607_a_at) / Fold change (ACY-1035/veh), C12orf56 (ProbeSet 11735607_a_at) / Fold change (Aza/veh), FGFR1OP (ProbeSet 11751329_s_at) / Fold change (ACY-1035/veh), FGFR1OP (ProbeSet 11751329_s_at) / Fold change (Aza/veh), VPS36 (ProbeSet 11739960_a_at) / Fold change (ACY-1035/veh), VPS36 (ProbeSet 11739960_a_at) / RFU SYPL1 (11715823_x_at) / Fold change /veh SYPL1 (11715823_x_at) / RFU IGFBP7 (11715501_s_at) / Fold change /veh IGFBP7 (11715501_s_at) / RFU REEP3 (11722064_at) / Fold change /veh REEP3 (11722064_at) / RFU IGLL1 (11728026_x_at) / Fold change /veh IGLL1 (11728026_x_at): dose or concentration left out as unconfirmed. The settings on record: ProbeSet 11721611_a_at; LIST D.

For `Nc1ccc(-c2cccs2)cc1NC(=O)c1ccc2c(c1)cc(C1CC1)n2CCN1CCOCC1` [ACY-1035], the “RFU, IPO11” value turned out to be 82.15 RFU.
